Experimental data from patent publication US8653096B2, “Chemokine receptor antagonists and methods of use thereof” (Millennium Pharmaceuticals, Inc., priority 2001, dated 2014).

Biological target: T1, RANTES/MIP-1α chemokine receptor (CCR1) in THP-1 cell membranes (Homo sapiens, UniProt P32246)
T1 construct: Membranes were prepared from THP-1 cells (ATCC #TIB202); host or cells: THP-1 cells (membrane preparation)
T1 sequence (P32246 1-355): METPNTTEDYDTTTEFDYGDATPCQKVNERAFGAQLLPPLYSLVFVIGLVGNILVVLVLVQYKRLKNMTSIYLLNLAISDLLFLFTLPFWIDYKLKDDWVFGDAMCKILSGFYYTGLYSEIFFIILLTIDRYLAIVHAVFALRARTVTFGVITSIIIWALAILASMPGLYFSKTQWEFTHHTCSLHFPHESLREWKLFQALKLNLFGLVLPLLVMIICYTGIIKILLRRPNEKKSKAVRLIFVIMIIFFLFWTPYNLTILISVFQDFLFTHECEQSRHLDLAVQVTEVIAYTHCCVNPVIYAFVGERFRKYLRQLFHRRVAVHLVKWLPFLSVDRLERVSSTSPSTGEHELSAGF
Assay: Receptor binding assay: 125I-RANTES or 125I-MIP-1α binding to THP-1 cell membranes
Settings: inhibitor concentration required for 50% inhibition of specific binding; 125I-RANTES or 125I-MIP-1α as ligand, THP-1 cell membranes; read-out: IC50
Description: Membranes were prepared from THP-1 cells (ATCC #TIB202). Cells were harvested by centrifugation, washed twice with PBS (phosphate-buffered saline), and the cell pellets were frozen at −70 to −85° C. The frozen pellet was thawed in ice-cold lysis buffer consisting of 5 mM HEPES (N-2-hydroxyethylpiperazine-N′-2-ethane-sulfonic acid) pH 7.5, 2 mM EDTA (ethylenediaminetetraacetic acid), 5 μg/ml each aprotinin, leupeptin, and chymostatin (protease inhibitors), and 100 μg/ml PMSF (phenyl methane sulfonyl fluoride—also a protease inhibitor), at a concentration of 1 to 5×10^7 cells/ml. This procedure results in cell lysis. The suspension was mixed well to resuspend all of the frozen cell pellet. Nuclei and cell debris were removed by centrifugation of 400×g for 10 minutes at 4° C. The supernatant was transferred to a fresh tube and the membrane fragments were collected by centrifugation at 25,000×g for 30 minutes at 4° C. The supernatant was aspirated and the pellet was resuspended in freezing buffer consisting of 10 mM HEPES pH 7.5, 300 mM sucrose, 1 μg/ml each aprotinin, leupeptin, and chymostatin, and 10 μg/ml PMSF (approximately 0.1 ml per each 10^8 cells). All clumps were resolved using a minihomogenizer, and the total protein concentration was determined using a protein assay kit (Bio-Rad, Hercules, Calif., cat #500-0002). The membrane solution was then aliquoted and frozen at −70 to −85° C. until needed.
Binding Assays utilized the membranes described above. […] The binding reactions were performed in 60 to 100 μl of a binding buffer consisting of 10 mM HEPES pH 7.2, 1 mM CaCl2, 5 mM MgCl2, and 0.5% BSA (bovine serum albumin), for 60 min at room temperature. The binding reactions were terminated by harvesting the membranes by rapid filtration through glass fiber filters (GF/B or GF/C, Packard) which were presoaked in 0.3% polyethyleneimine. The filters were rinsed with approximately 600 μl of binding buffer containing 0.5 M NaCl, dried, and the amount of bound radioactivity was determined by scintillation counting in a Topcount beta-plate counter.
Specific binding is defined as the total binding minus the non-specific binding; non-specific binding is the amount of cpm still detected in the presence of excess unlabeled Rantes or MIP-1α.

Substance | IC50
1-(2-Chlorophenylsulfonyl)-4-[3-(5,11-Dihydro-7-methoxy[1]benzoxepino[2,3-b]pyridin-5-ylidene)propyl]piperazine [Example 190] | > 10 µM
1-(3-Chlorophenylsulfonyl)-4-[3-(5,11-Dihydro-7-methoxy[1]benzoxepino[2,3-b]pyridin-5-ylidene)propyl]piperazine [Example 191] | > 10 µM
1-(4-Chlorophenyl)-4-[3-(5,11-dihydro-7-methoxy[1]benzoxepino[2,3-b]pyridin-5-ylidene)propyl]piperazine [Example 71] | < 1 µM
1-(4-Chlorophenylsulfonyl)-4-[3-(5,11-Dihydro-7-methoxy[1]benzoxepino[2,3-b]pyridin-5-ylidene)propyl]piperazine [Example 192] | > 10 µM
1-Cyclohexyl-4-[3-(5,11-dihydro-7-methoxy[1]benzoxepino[2,3-b]pyridin-5-ylidene)propyl]piperazine [Example 73] | < 10 µM
1-[3-(5,11-Dihydro-7-methoxy[1]benzoxepino[2,3-b]pyridin-5-ylidene)propyl]-4-(2-furoyl)piperazine [Example 74] | < 1000 µM
1-[3-(5,11-Dihydro-7-methoxy[1]benzoxepino[2,3-b]pyridin-5-ylidene)propyl]-4-(2-hydroxyphenyl)piperidine [Example 184] | < 10 µM
1-[3-(5,11-Dihydro-7-methoxy[1]benzoxepino[2,3-b]pyridin-5-ylidene)propyl]-4-(2-pyridyl)piperidin-4-ol [Example 147] | < 10 µM
1-[3-(5,11-Dihydro-7-methoxy[1]benzoxepino[2,3-b]pyridin-5-ylidene)propyl]-4-(2-pyrimidyl)piperazine [Example 72] | < 10 µM
1-[3-(5,11-Dihydro-7-methoxy[1]benzoxepino[2,3-b]pyridin-5-ylidene)propyl]-4-(3-pyridyl)piperidin-4-ol [Example 148] | < 10 µM
1-[3-(5,11-Dihydro-7-methoxy[1]benzoxepino[2,3-b]pyridin-5-ylidene)propyl]-4-(4-fluoro-3-methylphenyl)piperidin-4-ol [Example 143] | < 1 µM
1-[3-(5,11-Dihydro-7-methoxy[1]benzoxepino[2,3-b]pyridin-5-ylidene)propyl]-4-(4-fluorophenyl)piperidin-4-ol [Example 77] | < 1 µM
1-[3-(5,11-Dihydro-7-methoxy[1]benzoxepino[2,3-b]pyridin-5-ylidene)propyl]-4-(4-hydroxyphenyl)piperidin-4-ol [Example 142] | < 10 µM
1-[3-(5,11-Dihydro-7-methoxy[1]benzoxepino[2,3-b]pyridin-5-ylidene)propyl]-4-(4-hydroxyphenyl)piperidine [Example 183] | < 1 µM
1-[3-(5,11-Dihydro-7-methoxy[1]benzoxepino[2,3-b]pyridin-5-ylidene)propyl]-4-(4-methoxyphenyl)piperidin-4-ol [Example 140] | > 10 µM
1-[3-(5,11-Dihydro-7-methoxy[1]benzoxepino[2,3-b]pyridin-5-ylidene)propyl]-4-(4-pyridyl)piperidin-4-ol [Example 149] | < 1000 µM
1-[3-(5,11-Dihydro-7-methoxy[1]benzoxepino[2,3-b]pyridin-5-ylidene)propyl]-4-(4-trifluoromethylphenyl)piperidin-4-ol [Example 150] | < 10 µM
1-[3-(5,11-Dihydro-7-methoxy[1]benzoxepino[2,3-b]pyridin-5-ylidene)propyl]-4-phenylpiperidine [Example 64] | < 1 µM
1-[3-(5,11-Dihydro-7-methoxy[1]benzoxepino[2,3-b]pyridin-5-ylidene)propyl]-4-piperidinopiperidine [Example 66] | < 1000 µM

Substance | IC50
1-[3-(5,11-Dihydro-7-methoxy[1]benzoxepino[2,3-b]pyridin-5-ylidene)propyl]piperidin-4-ol [Example 61] | < 10 µM
1-[3-(7-(1-Carboxy-1-methylethyl)oxy-5,11-dihydro [1]benzoxepino[2,3-b]pyridin-5-ylidene)propyl]-4-(4-chlorophenyl)piperidin-4-ol [Example 139] | < 1 µM
1-[3-(7-(1-Carboxy-1-methylethyl)oxy-5,11-dihydro[1]benzoxepino[2,3-b]pyridin-5-ylidene)propyl]-4-(4-chlorophenyl)piperidine [Example 159] | < 1 µM
1-[3-(7-(1-Carboxyethyl)oxy-5,11-dihydro[1]benzoxepino[2,3-b]pyridin-5-ylidene)propyl]-4-(4-chlorophenyl)piperidin-4-ol [Example 178] | < 1 µM
1-[3-(7-(2-Carbamoyl)ethyl-5,11-dihydro[1]benzoxepino[2,3-b]pyridin-5-ylidene)propyl]-4-(4-chlorophenyl)-piperidin-4-ol [Example 218] | < 1 µM
1-[3-(7-(2-Carboxy)ethenyl-5,11-dihydro[1]benzoxepino[2,3-b]pyridin-5-ylidene)propyl]-4-(4-chlorophenyl)piperidin-4-ol [Example 172] | < 1 µM
1-[3-(7-(2-Carboxy)ethyl-5,11-dihydro[1]benzoxepino[2,3-b]pyridin-5-ylidene)propyl]-4-(4-chlorophenyl)-piperidin-4-ol [Example 123] | < 1 µM
1-[3-(7-Bromo-5,11-dihydro[1]benzoxepino[2,3-b]pyridin-5-ylidene)propyl]-4-(4-chlorophenyl)piperidin-4-ol [Example 162] | < 1 µM
1-[3-(7-Carbamoyl-5,11-dihydro[1]benzoxepino[2,3-b]pyridin-5-ylidene)propyl]-4-(4-chlorophenyl)piperidin-4-ol [Example 269] | < 1 µM
1-[3-(7-Carbamoylmethyl-5,11-dihydro[1]benzoxepino[2,3-b]pyridin-5-ylidene)propyl]-4-(4-chlorophenyl)-piperidin-4-ol [Example 281] | < 1 µM
1-[3-(7-Carbamoylmethyloxy-5,11-dihydro[1]benzoxepino[2,3-b]pyridin-5-ylidene)propyl]-4-(4-chlorophenyl)piperidin-4-ol [Example 181] | < 1 µM
1-[3-(7-Carboxy-5,11-dihydro[1]benzoxepino[2,3-b]pyridin-5-ylidene)propyl]-4-(4-chlorophenyl)piperidin-4-ol [Example 118] | < 1 µM
1-[3-(7-Carboxymethyloxy-5,11-dihydro[1]benzoxepino[2,3-b]pyridin-5-ylidene)propyl]-4-(4-chlorophenyl)piperidin-4-ol [Example 133] | < 1 µM
1-[3-(7-Chloro-5,11-dihydro[1]benzoxepino[2,3-b]pyridin-5-ylidene)propyl]-4-(4-chlorophenyl)piperidin-4-ol [Example 117] | < 1 µM
1-[3-(8-Bromo-5,11-dihydro[1]benzoxepino[2,3-b]pyridin-5-ylidene)propyl]-4-(4-chlorophenyl)piperidin-4-ol [Example 54] | < 1 µM
1-[3-(8-Bromo-5,11-dihydro[1]benzoxepino[2,3-b]pyridin-5-ylidene)propyl]-4-(4-chlorophenyl)piperidine [Example 160] | < 1 µM
1-[3-(8-Carboxy-5,11-dihydro[1]benzoxepino[2,3-b]pyridin-5-ylidene)propyl]-4-(4-chlorophenyl)piperidine [Example 161] | < 10 µM
1-{3-[7-(1-Hydroxy-1-methyl-ethyl)-11H-10-oxa-1-aza-dibenzo[a,d]cyclohepten-5-ylidene]-propyl}-4-phenyl-piperidin-4-ol [Example 488] | < 1 µM
1′-[3-(5,11-Dihydro-7-methoxy[1]benzoxepino[2,3-b]pyridin-5-ylidene)propyl]spiro[isobenzofuran-1(3H), 4′-piperidine] [Example 90] | < 1 µM
